Results on 31 molecules are retold here after patent US9499493B2, “2,4-pyrimidinediamine compounds and their uses” (Rigel Pharmaceuticals, Inc., priority 2002, dated 2016).

One may read the IC50 as the concentration at which inhibition is half-maximal. Read a high IC50 as a need for much substance.

The subject of this experiment is cultured human mast cells (CHMC). Nature of the experiment: CHMC low cell density IgE activation: tryptase assay. Format: cell-based. To be noted: anti-IgE. As for the experimental part:
Pellet CHMC cells (980 rpm, 10 min) and resuspend in pre-warmed MT. Add 65 ul of cells to each 96-well plate. Depending on the degranulation activity for each particular CHMC donor, load 1000-1500 cells/well. Mix four times followed by a 1 hr incubation at 37° C. […] Stimulate cells by adding 25 ul of 6× anti-IgE solution to the appropriate plates. Add 25 ul MT to un-stimulated control wells. Mix twice following addition of the anti-IgE. Incubate at 37° C. for 30 minutes. […] Spin plates at 1000 rpm for 10 min to pellet cells. Transfer 25 ul of supernatant to a 96-well black bottom plate and add 100 ul of freshly diluted tryptase substrate solution to each well. Incubate plates at room temperature for 30 min.
Turning to `COC(=O)COc1cccc(Nc2ncc(F)c(Nc3ccc4[nH]ncc4c3)n2)c1` [R935269, 5-Fluoro-N4-(indazoline-5-yl)-N2-[3-(methoxycarbonylmethyleneoxy)phenyl]-2,4-pyrimidinediamine], half-maximal inhibition (IC50) was put at 1720 nM. As for `CC(C)Oc1ccc(Nc2nc(Nc3ccc4nn(C)cc4c3)ncc2F)cc1` [R935298, 5-Fluoro-N4-(4-isopropoxyphenyl)-N2-(2-methyl-indazoline-5-yl)-2,4-pyrimidinediamine], the figure is 252 nM; as for `CCOC(=O)CCn1ncc2cc(Nc3ncc(F)c(Nc4ccc5c(c4)OCCO5)n3)ccc21` [R935301, N2-[1-(2-Ethoxycarbonylethyl)indazoline-5-yl]-N4-(3,4-ethylenedioxyphenyl)-5-fluoro-2,4-pyrimidinediamine], 4050 nM; as for `CCOC(=O)CCn1ncc2cc(Nc3nc(Nc4cccc(O)c4)ncc3F)ccc21` [R935303, N4-[1-(2-Ethoxycarbonylethyl)indazoline-5-yl]-5-fluoro-N2-(3-hydroxyphenyl)-2,4-pyrimidinediamine], 244 nM. On to `CCOC(=O)CCn1ncc2cc(Nc3nc(Nc4ccc(OC(C)C)cc4)ncc3F)ccc21` [R935306, N4-[1-(2-Ethoxycarbonylethyl)indazoline-5-yl]-5-fluoro-N2-(4-isopropoxyphenyl)-2,4-pyrimidinediamine], for which the IC50 came to 345 nM. Regarding `CC(C)Oc1ccc(Nc2nc(Nc3ccc4c(cnn4CCCO)c3)ncc2F)cc1` [R935307, 5-Fluoro-N2-[1-(3-hydroxypropyl)indazoline-5-yl]-N4-(4-isopropoxyphenyl)-2,4-pyrimidinediamine], the IC50 worked out at 139 nM.

Consider `COC(=O)c1ccc(Cn2ncc3ccc(Nc4ncc(F)c(Nc5ccc6c(c5)OCCO6)n4)cc32)c(OC)c1` [R935320, N4-(3,4-Ethylenedioxyphenyl)-5-fluoro-N2-[1-(2-methoxy-4-carbomethoxybenzyl)indazoline-6-yl]-2,4-pyrimidinediamine], for which the IC50 was found to be 2770 nM. The molecule `COC(=O)c1ccc(Cn2ncc3ccc(Nc4ncc(F)c(Nc5cccc(O)c5)n4)cc32)c(OC)c1` [R935321, 5-Fluoro-N4-(3-hydroxyphenyl)-N2-[1-(2-methoxy-4-carbomethoxybenzyl)indazoline-6-yl]-2,4-pyrimidinediamine] came in with an IC50 of 2990 nM. Molecule `COc1cc(C(=O)NS(=O)(=O)c2ccccc2C)ccc1Cn1ncc2ccc(Nc3ncc(F)c(Nc4ccc(OC(C)C)cc4)n3)cc21` [R935322, 5-Fluoro-N4-(4-isopropoxyphenyl)-N2-[1-[2-methoxy-4-(o-toluylsulfonamidocarboxy)benzyl]indazoline-6-yl]-2,4-pyrimidinediamine] had an IC50 of 3420 nM.

As for `COc1cc(C(=O)NS(=O)(=O)c2ccccc2C)ccc1Cn1ncc2ccc(Nc3ncc(F)c(Nc4ccc5c(c4)OCCO5)n3)cc21` [R935323, N4-(3,4-Ethylenedioxyphenyl)-5-fluoro-N4-[1-[2-methoxy-4-(o-toluylsulfonamidocarboxy)benzyl]indazoline-6-yl]-2,4-pyrimidinediamine], the IC50 was greater than 10000 nM. With `COc1cc(C(=O)NS(=O)(=O)c2ccccc2C)ccc1Cn1ncc2ccc(Nc3ncc(F)c(Nc4cccc(O)c4)n3)cc21` [R935324, 5-Fluoro-N4-(3-hydroxyphenyl)-N2-[1-[2-methoxy-4-(o-toluylsulfonamidocarboxy)benzyl]indazoline-6-yl]-2,4-pyrimidinediamine], the IC50 was greater than 10000 nM.

`COC(=O)c1ccc(Cn2cc3ccc(Nc4ncc(F)c(Nc5cccc(O)c5)n4)cc3n2)c(OC)c1` [R935337, 5-Fluoro-N4-(3-hydroxyphenyl)-N2-[2-(2-methoxy-4-carbomethoxybenzyl)indazoline-6-yl]-2,4-pyrimidinediamine] had an IC50 greater than 10000 nM. Regarding `COc1cc(C(=O)NS(=O)(=O)c2ccccc2C)ccc1Cn1ncc2cc(Nc3ncc(F)c(Nc4ccc5c(c4)OCCO5)n3)ccc21` [R935339, N4-(3,4-Ethylenedioxyphenyl)-5-fluoro-N2-[1-[2-methoxy-4-(o-toluylsulfonamidocarboxy)benzyl]indazoline-5-yl]-2,4-pyrimidinediamine], the IC50 is greater than 10000 nM.

In the case of `COc1cc(C(=O)NS(=O)(=O)c2ccccc2C)ccc1Cn1ncc2cc(Nc3ncc(F)c(Nc4cccc(O)c4)n3)ccc21` [R935340, 5-Fluoro-N4-(3-hydroxyphenyl)-N2-[1-[2-methoxy-4-(o-toluylsulfonamidocarboxy)benzyl]indazoline-5-yl]-2,4-pyrimidinediamine], it took 3610 nM to reach half-maximal inhibition (IC50).

As to `COc1ccc(Nc2nc(Nc3ccc4c(cnn4C)c3)ncc2F)c(OC)n1` [R935380, N4-(2,6-Dimethoxy-3-pyridyl)-5-fluoro-N2-[1-methylindazoline-5-yl]-2,4-pyrimidinediamine], the IC50 was determined as 1610 nM. As for `CNC(=O)COc1cccc(Nc2ncc(F)c(Nc3ccc(OC)c(C(=O)NC(C)C)c3)n2)c1` [R940312, 5-Fluoro-N2-[3-(methylaminocarbonylmethyleneoxy)phenyl]-N4-(3-iso-propylaminocarbonyl-4-methoxyphenyl)-2,4-pyrimidinediamine], the figure is 2560 nM. With `CNC(=O)COc1cccc(Nc2ncc(F)c(Nc3ccc(OC)c(CN4CCOCC4)c3)n2)c1` [R940314, 5-Fluoro-N2-[3-(methylaminocarbonylmethyleneoxy)phenyl]-N4-[3-(N-morpholinomethylene)-4-methoxyphenyl]-2,4-pyrimidinediamine], the IC50 was 4200 nM. As for `COc1ccc(Nc2nc(Nc3cc(C)c(O)c(Cl)c3)ncc2F)cc1CN1CCOCC1` [R940316, N2-(3-Chloro-4-hydroxy-5-methylphenyl)-5-fluoro-N4-[3-(N-morpholinomethylene)-4-methoxyphenyl]-2,4-pyrimidinediamine], the figure is 1860 nM; as for `COc1ccc(Nc2nc(Nc3cc(C)c(O)c(Cl)c3)ncc2F)cc1CN1CCNCC1` [R940318, N2-(3-Chloro-4-hydroxy-5-methylphenyl)-5-fluoro-N4-[3-(N-piperazinomethylene)-4-methoxyphenyl]-2,4-pyrimidinediamine], 3790 nM.

In the case of `CNC(=O)COc1cccc(Nc2ncc(F)c(Nc3ccc(OC)c(CN(C(=O)OC(C)(C)C)C(C)C)c3)n2)c1` [R940319, N4-(3-(N-tert-Butoxycarbonyl-N-iso-propylaminomethylene)-4-methoxyphenyl)-5-fluoro-N2-[3-(methylaminocarbonylmethyleneoxy)phenyl]-2,4-pyrimidinediamine], the IC50 was greater than 10000 nM. Turning to `CNC(=O)COc1cccc(Nc2ncc(F)c(Nc3ccc(OC)c(CN(C)C)c3)n2)c1` [R940321, N4-(3-N,N-Dimethylaminomethylene-4-methoxyphenyl)-5-fluoro-N2-[3-(methylaminocarbonylmethyleneoxy)phenyl]-2,4-pyrimidinediamine], the IC50 is greater than 10000 nM. Molecule `CNC(=O)COc1cccc(Nc2ncc(F)c(Nc3ccc4c(c3)N(c3ccccn3)CC(C)(C)O4)n2)c1` [R940337, N4-[3-Dihydro-2,2-dimethyl-4-(2-pyridyl)-benzo[1,4]oxazin-6-yl]-5-fluoro-N2-[3-(methylaminocarbonylmethyleneoxy)phenyl]-2,4-pyrimidinediamine] gave an IC50 of 1100 nM. In turn, `CNC(=O)COc1cccc(Nc2ncc(F)c(Nc3cnc4c(c3)OC(C)(C)C(=O)N4)n2)c1` [R940345, N4-[(2,2-Dimethyl-4H-5-pyrido[1,4]oxazin-3-one)-7-yl]-5-fluoro-N2-[3-(methylaminocarbonylmethyleneoxy)phenyl]-2,4-pyrimidinediamine] showed an IC50 of 1710 nM. The molecule `CC1(C)Oc2ccc(Nc3nc(Nc4cccc(O)c4)ncc3F)cc2NC1=O` [R940346, N4-[(2,2-Dimethyl-4H-benzo[1,4]oxazin-3-one)-6-yl]-5-fluoro-N2-(3-hydroxyphenyl)-2,4-pyrimidinediamine] had an IC50 of 142 nM. `CC1(C)CN(c2ccccn2)c2cc(Nc3nc(Nc4cccc(O)c4)ncc3F)ccc2O1` [R940348, N4-[3-Dihydro-2,2-dimethyl-4-(2-pyridyl)-benzo[1,4]oxazin-6-yl]-5-fluoro-N2-(3-hydroxyphenyl)-2,4-pyrimidinediamine] registered an IC50 of 2190 nM.

In the case of `COC(=O)c1cc2cc(Nc3ncc(F)c(Nc4ccc5c(c4)NC(=O)C(C)(C)O5)n3)ccc2o1` [R940354, N4-[(2,2-Dimethyl-4H-benzo[1,4]oxazin-3-one)-6-yl]-5-fluoro-N2-(2-methoxycarbonylbenzofur-5-yl)-2,4-pyrimidinediamine], the IC50 amounted to 115 nM.

The molecule `CNC(=O)COc1cccc(Nc2ncc(F)c(Nc3cnc4c(c3)OCCN4)n2)c1` [R945263, 5-Fluoro-N2-(3-methylaminocarbonylmethyleneoxyphenyl)-N4-[2H-pyrido[3,2-b]-1,4-oxazin-7-yl]-2,4-pyrimidinediamine] gave an IC50 of 1640 nM. Molecule `O=[N+]([O-])c1ccc(NCCO)c(Nc2ccnc(Nc3cc([N+](=O)[O-])ccc3NCCO)n2)c1` [R950156, N2,N4-Bis(2-hydroxyethyleneamino-5-nitrophenyl)-2,4-pyrimidinediamine] had an IC50 greater than 10000 nM.

`CC(=O)Nc1cccc(N(C(C)=O)c2ncc(F)c(N(C(C)=O)c3cccc(NC(C)=O)c3)n2)c1` [R950244, N2,N4-Bis(3-N-acetylaminophenyl)-5-fluoro-N2,N4-pyrimidinediacetylamine] displayed an IC50 greater than 10000 nM. As for `CC(=O)Nc1cccc(N(C(C)=O)c2ncc(F)c(N(C(C)=O)c3cccc(N(C(C)=O)C(C)=O)c3)n2)c1` [R950245, N4-(3-N,N-Diacetylaminophenyl)-N2-(3-N-acetylaminopheny)-5-fluoro-N2,N4-pyrimidinediacetylamine], the IC50 was greater than 10000 nM.

Molecule `CC(=O)Nc1cccc(N(C(C)=O)c2nc(N(C(C)=O)c3cccc(N(C(C)=O)C(C)=O)c3)ncc2F)c1` [R950246, N4-(3-N-Acetylaminophenyl)-N2-(3-N,N-diacetylaminopheny)-5-fluoro-N2,N4-pyrimidinediacetylamine] registered an IC50 greater than 10000 nM.
